Reference: patent publication US20250333407A1, “Compounds and Their Use for Treatment of Hemoglobinopathies” (Bristol-Myers Squibb Company, priority 2024, published 2025)

What was measured:
Format in all cases: cell-based
WIZ = molecular target: T1, WIZ (Homo sapiens, UniProt O95785+Q96SW2); assay: HUDEP-2 WIZ HiBiT degradation assay; settings: HiBiT-tagged WIZ degradation in HUDEP-2 cells, 24 hours of treatment; read-out: WIZ EC50
T1 construct: HUDEP-2 cells engineered to express a HiBiT tag in either the WIZ (Widely interspaced zinc finger) or ZBTB7A
T1 sequence (O95785 whole entry): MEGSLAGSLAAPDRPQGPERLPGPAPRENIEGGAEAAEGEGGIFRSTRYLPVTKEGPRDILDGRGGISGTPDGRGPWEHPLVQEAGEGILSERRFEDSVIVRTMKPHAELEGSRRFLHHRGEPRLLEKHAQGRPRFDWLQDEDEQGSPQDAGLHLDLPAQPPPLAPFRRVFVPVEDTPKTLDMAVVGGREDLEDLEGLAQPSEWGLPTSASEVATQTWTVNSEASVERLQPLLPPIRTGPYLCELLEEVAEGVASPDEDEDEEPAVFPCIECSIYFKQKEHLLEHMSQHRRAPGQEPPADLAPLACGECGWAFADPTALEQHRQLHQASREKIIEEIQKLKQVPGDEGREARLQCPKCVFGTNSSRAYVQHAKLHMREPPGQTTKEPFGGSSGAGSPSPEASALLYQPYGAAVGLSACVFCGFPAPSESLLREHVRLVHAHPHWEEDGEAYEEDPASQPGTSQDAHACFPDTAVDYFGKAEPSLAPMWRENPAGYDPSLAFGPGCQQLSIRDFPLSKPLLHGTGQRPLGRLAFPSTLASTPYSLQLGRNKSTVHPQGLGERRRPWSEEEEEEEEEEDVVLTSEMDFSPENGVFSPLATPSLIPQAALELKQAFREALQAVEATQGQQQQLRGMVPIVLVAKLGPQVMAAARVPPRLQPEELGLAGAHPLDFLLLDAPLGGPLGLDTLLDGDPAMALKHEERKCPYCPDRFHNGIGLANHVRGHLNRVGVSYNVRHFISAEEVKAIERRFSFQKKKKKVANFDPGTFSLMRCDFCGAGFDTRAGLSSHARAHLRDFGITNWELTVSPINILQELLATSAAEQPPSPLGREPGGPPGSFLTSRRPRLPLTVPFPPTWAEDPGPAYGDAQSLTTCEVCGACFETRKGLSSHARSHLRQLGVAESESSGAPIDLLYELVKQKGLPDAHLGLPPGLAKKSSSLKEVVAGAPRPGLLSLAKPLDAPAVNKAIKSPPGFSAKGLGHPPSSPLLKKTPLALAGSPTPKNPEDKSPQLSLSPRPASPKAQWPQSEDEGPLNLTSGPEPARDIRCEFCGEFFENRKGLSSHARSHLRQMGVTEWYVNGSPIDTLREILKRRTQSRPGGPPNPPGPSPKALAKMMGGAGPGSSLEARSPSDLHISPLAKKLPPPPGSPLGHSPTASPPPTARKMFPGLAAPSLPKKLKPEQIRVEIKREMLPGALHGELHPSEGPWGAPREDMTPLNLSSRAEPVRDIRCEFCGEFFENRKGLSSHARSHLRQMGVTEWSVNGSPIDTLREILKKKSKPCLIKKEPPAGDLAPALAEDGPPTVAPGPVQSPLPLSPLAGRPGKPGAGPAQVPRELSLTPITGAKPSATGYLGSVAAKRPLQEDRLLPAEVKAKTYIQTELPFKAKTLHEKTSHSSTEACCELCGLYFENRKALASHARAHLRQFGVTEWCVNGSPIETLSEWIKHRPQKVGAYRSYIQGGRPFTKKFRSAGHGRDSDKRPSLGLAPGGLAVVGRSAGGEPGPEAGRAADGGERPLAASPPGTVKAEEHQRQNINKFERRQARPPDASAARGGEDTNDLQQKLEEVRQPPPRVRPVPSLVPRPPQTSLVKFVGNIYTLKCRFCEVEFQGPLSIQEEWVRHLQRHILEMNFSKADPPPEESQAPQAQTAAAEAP
T1 sequence (Q96SW2 whole entry): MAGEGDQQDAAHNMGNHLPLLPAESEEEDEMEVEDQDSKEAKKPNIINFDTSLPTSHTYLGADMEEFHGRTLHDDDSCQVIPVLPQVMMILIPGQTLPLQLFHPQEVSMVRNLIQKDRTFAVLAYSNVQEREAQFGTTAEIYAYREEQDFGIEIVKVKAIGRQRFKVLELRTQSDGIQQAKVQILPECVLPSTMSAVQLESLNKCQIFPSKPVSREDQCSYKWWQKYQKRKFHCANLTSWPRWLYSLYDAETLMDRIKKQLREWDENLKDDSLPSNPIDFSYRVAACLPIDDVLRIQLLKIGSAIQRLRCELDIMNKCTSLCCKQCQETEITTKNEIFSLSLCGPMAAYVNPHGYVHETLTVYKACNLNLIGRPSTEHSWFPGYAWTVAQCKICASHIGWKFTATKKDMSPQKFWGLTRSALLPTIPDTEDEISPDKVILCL
T1 sequence (Q16531 whole entry partner): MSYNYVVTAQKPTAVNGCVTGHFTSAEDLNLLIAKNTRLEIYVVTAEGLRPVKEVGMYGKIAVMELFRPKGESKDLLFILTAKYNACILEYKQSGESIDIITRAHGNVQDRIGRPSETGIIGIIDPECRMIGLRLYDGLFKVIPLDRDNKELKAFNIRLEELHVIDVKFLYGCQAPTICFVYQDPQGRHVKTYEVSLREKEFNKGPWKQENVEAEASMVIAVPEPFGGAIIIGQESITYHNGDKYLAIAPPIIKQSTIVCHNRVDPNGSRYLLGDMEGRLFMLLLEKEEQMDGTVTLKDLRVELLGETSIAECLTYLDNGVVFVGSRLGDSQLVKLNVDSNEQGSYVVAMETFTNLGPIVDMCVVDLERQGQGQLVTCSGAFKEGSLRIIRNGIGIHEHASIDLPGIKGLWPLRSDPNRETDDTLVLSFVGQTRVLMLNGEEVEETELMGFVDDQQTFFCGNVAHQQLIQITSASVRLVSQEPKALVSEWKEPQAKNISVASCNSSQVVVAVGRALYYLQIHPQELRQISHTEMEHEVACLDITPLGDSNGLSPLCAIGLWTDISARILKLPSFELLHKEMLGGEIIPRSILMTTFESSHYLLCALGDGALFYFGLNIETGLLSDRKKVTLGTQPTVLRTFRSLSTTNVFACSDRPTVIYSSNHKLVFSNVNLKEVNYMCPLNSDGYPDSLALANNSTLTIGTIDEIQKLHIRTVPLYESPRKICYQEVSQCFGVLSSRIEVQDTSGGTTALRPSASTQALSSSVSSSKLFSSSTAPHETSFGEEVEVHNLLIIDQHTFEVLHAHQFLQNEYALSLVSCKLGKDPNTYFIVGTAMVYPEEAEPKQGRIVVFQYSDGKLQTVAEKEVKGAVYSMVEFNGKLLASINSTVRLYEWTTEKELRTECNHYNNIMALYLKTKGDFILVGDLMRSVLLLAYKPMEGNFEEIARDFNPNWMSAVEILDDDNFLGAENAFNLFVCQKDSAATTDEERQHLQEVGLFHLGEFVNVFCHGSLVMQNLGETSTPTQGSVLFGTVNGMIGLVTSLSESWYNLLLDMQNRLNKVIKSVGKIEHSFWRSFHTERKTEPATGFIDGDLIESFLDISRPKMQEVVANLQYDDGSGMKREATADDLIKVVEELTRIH
Outline: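 HiBiT-tagged HUDEP-2 cells at 1.0×10^6 cells/ml in SFEM II with SCF, EPO, dexamethasone and doxycycline, treated 24 h at 37 °C with a 10-point series ([…]). Luminescence after HiBiT lytic detection, normalized to DMSO; EC50 and Y-min from fitted curves.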

HbF = HbF HiBiT induction assay in HUDEP-2 cells; settings: HUDEP-2 cells with HiBiT tag in HBG1/2, 72 hours of treatment; area under the dose response curve, higher AUC = greater HbF induction
Outline: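 HUDEP-2 cells carrying a HiBiT tag on HBG1/2 were exposed to compounds for 72 h at 37° C, 5% CO2, in IMDM with EPO, hSCF, DOX, transferrin, insulin, heparin and 5% human plasma. HiBiT luminescence was read after lytic detection; HbF induction is expressed as dose-response AUC, alongside EC50 and Ymax.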

ZBTB7A = molecular target: T2, ZBTB7A (Homo sapiens, UniProt O95365+Q96SW2); assay: HUDEP-2 ZBTB7A HiBiT degradation assay; settings: HiBiT-tagged ZBTB7A degradation in HUDEP-2 cells, 24 hours of treatment; read-out: ZBTB7A EC50
T2 construct: HUDEP-2 cells engineered to express a HiBiT tag in either the WIZ (Widely interspaced zinc finger) or ZBTB7A
T2 sequence (O95365 whole entry): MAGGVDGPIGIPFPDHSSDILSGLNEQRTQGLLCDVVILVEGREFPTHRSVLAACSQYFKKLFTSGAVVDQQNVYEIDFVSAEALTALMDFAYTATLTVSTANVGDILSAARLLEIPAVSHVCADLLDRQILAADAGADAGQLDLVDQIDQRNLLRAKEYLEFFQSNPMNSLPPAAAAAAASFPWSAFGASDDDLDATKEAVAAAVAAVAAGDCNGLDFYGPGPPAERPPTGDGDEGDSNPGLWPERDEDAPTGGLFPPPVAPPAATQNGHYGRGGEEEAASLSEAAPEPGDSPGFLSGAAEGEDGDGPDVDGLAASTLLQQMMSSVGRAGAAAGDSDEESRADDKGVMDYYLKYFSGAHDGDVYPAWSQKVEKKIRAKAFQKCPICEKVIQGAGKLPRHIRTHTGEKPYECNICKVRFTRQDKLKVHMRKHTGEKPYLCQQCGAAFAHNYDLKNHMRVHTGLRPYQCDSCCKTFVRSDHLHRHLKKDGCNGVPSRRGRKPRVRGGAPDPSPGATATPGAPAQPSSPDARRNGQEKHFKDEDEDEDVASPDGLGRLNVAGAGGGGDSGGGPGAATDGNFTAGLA
T2 sequence (Q96SW2 whole entry): as the sequence (Q96SW2 whole entry) above
T2 sequence (Q16531 whole entry partner): as the sequence (Q16531 whole entry partner) above
Outline: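 HiBiT-tagged HUDEP-2 cells were pre-cultured 48 h in IMDM with EPO, SCF, doxycycline and 5% human plasma, then exposed to compounds at 1.0×10^6 cells/ml for 24 h at 37 °C. Nano-Glo HiBiT lytic luminescence, normalised to DMSO over 10 concentrations, gave EC50 and Y-min.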

Row | SMILES | DC50 (WIZ) | DC50 (ZBTB7A) | HBF AUC (HbF)
1 | Cc1cc(-c2cc3c(cc2Nc2cccc4c2C(=O)N(C2CCC(=O)NC2=O)C4=O)N(C)S(=O)(=O)CC3)ccn1 (stereo not drawn) [Compound 50, 2-(2,6-dioxopiperidin-3-yl)-4-((1-methyl-6-(2-methylpyridin-4-yl)-2,2-dioxido-3,4-dihydro-1H-benzo[c][1,2]thiazin-7-yl)amino)isoindoline-1,3-dione] | 0.018 µM | 0.028 µM | + (+ = 15 ≤ AUC < 100)
2 | COc1ncc(-c2cc3c(cc2Nc2cccc4c2C(=O)N(C2CCC(=O)NC2=O)C4=O)N(C)C(=O)CO3)cc1F (stereo not drawn) [Compound 51, 2-(2,6-dioxopiperidin-3-yl)-4-((7-(5-fluoro-6-methoxypyridin-3-yl)-4-methyl-3-oxo-3,4-dihydro-2H-benzo[b][1,4]oxazin-6-yl)amino)isoindoline-1,3-dione] | 0.037 µM | 0.03 µM | ++ (++ = 100 ≤ AUC < 150)
3 | CCN1C(=O)COc2cc(-c3cc(C)nc(C)c3)c(Nc3cccc4c3C(=O)N(C3CCC(=O)NC3=O)C4=O)cc21 (stereo not drawn) [Compound 56, 4-((7-(2,6-dimethylpyridin-4-yl)-4-ethyl-3-oxo-3,4-dihydro-2H-benzo[b][1,4]oxazin-6-yl)amino)-2-(2,6-dioxopiperidin-3-yl)isoindoline-1,3-dione] | 0.02 µM | 0.043 µM | ++ (++ = 100 ≤ AUC < 150)
4 | Cc1cc(-c2cc3c(cc2Nc2cccc4c2C(=O)N(C2CCC(=O)NC2=O)C4=O)N(C)C(=O)CO3)cc(C2CC2)n1 (stereo not drawn) [Compound 57, 4-((7-(2-cyclopropyl-6-methylpyridin-4-yl)-4-methyl-3-oxo-3,4-dihydro-2H-benzo[b][1,4]oxazin-6-yl)amino)-2-(2,6-dioxopiperidin-3-yl)isoindoline-1,3-dione] | 0.018 µM | 0.054 µM | +++ (+++ = AUC ≥ 150)
5 | Cc1cc(-c2cc3c(cc2Nc2cccc4c2C(=O)N(C2CCC(=O)NC2=O)C4=O)N(C)C(=O)OC3)cc(C)n1 (stereo not drawn) [Compound 62, 4-((6-(2,6-dimethylpyridin-4-yl)-1-methyl-2-oxo-1,4-dihydro-2H-benzo[d][1,3]oxazin-7-yl)amino)-2-(2,6-dioxopiperidin-3-yl)isoindoline-1,3-dione] | 0.017 µM | 0.019 µM | ++ (++ = 100 ≤ AUC < 150)
6 | CC(=O)N1CCCC(c2cc3c(cc2Nc2cccc4c2C(=O)N([C@H]2CCC(=O)NC2=O)C4=O)N(C)C(=O)CO3)C1 (stereo partly drawn) [Compound 63, 4-((7-(1-acetylpiperidin-3-yl)-4-methyl-3-oxo-3,4-dihydro-2H-benzo[b][1,4]oxazin-6-yl)amino)-2-((S)-2,6-dioxopiperidin-3-yl)isoindoline-1,3-dione] | 0.016 µM | 0.014 µM | ++ (++ = 100 ≤ AUC < 150)
7 | COc1nccc(-c2cc3oc(=O)n(C)c3cc2Nc2cccc3c2C(=O)N(C2CCC(=O)NC2=O)C3=O)c1F (stereo not drawn) [Compound 65, 2-(2,6-dioxopiperidin-3-yl)-4-((6-(3-fluoro-2-methoxypyridin-4-yl)-3-methyl-2-oxo-2,3-dihydrobenzo[d]oxazol-5-yl)amino)isoindoline-1,3-dione] | 0.041 µM | 0.096 µM | + (+ = 15 ≤ AUC < 100)
8 | Cc1cc(-c2c(Nc3cccc4c3C(=O)N([C@H]3CCC(=O)NC3=O)C4=O)cc3c(c2F)OCC(=O)N3C)c(F)cn1 [Compound 67, 2-((S)-2,6-dioxopiperidin-3-yl)-4-((8-fluoro-7-(5-fluoro-2-methylpyridin-4-yl)-4-methyl-3-oxo-3,4-dihydro-2H-benzo[b][1,4]oxazin-6-yl)amino)isoindoline-1,3-dione] | 0.017 µM | 0.025 µM | ++ (++ = 100 ≤ AUC < 150)

These reach a lower DC50 (WIZ). Values come first.

Row | DC50 (WIZ) | DC50 (ZBTB7A) | SMILES | HBF AUC (HbF)
9 | 0.012 µM | 0.143 µM | CCOc1cc(-c2cc3c(cc2Nc2cccc4c2C(=O)N(C2CCC(=O)NC2=O)C4=O)N(C)C(=O)CO3)ccn1 (stereo not drawn) [Compound 52, 2-(2,6-dioxopiperidin-3-yl)-4-((7-(2-ethoxypyridin-4-yl)-4-methyl-3-oxo-3,4-dihydro-2H-benzo[b][1,4]oxazin-6-yl)amino)isoindoline-1,3-dione] | + (+ = 15 ≤ AUC < 100)
10 | 0.004 µM | 0.01 µM | CN1C(=O)COc2cc([C@H]3CC[C@H](C#N)CC3)c(Nc3cccc4c3C(=O)N(C3CCC(=O)NC3=O)C4=O)cc21 (stereo partly drawn) [Compound 53, (1r,4r)-4-(6-((2-(2,6-dioxopiperidin-3-yl)-1,3-dioxoisoindolin-4-yl)amino)-4-methyl-3-oxo-3,4-dihydro-2H-benzo[b][1,4]oxazin-7-yl)cyclohexane-1-carbonitrile] | ++ (++ = 100 ≤ AUC < 150)
11 | 0.008 µM | 0.014 µM | CCO[C@H]1CC[C@H](c2cc3c(cc2Nc2cccc4c2C(=O)N([C@@H]2CCC(=O)NC2=O)C4=O)N(C)C(=O)[C@@H](C)O3)CC1 [Compound 54, 2-((R)-2,6-dioxopiperidin-3-yl)-4-(((R)-7-((1r,4R)-4-ethoxycyclohexyl)-2,4-dimethyl-3-oxo-3,4-dihydro-2H-benzo[b][1,4]oxazin-6-yl)amino)isoindoline-1,3-dione] | ++ (++ = 100 ≤ AUC < 150)
12 | 0.006 µM | 0.009 µM | CCO[C@H]1CC[C@H](c2cc3c(cc2Nc2cccc4c2C(=O)N([C@@H]2CCC(=O)NC2=O)C4=O)N(C)C(=O)[C@H](C)O3)CC1 [Compound 55, 2-((R)-2,6-dioxopiperidin-3-yl)-4-(((S)-7-((1r,4S)-4-ethoxycyclohexyl)-2,4-dimethyl-3-oxo-3,4-dihydro-2H-benzo[b][1,4]oxazin-6-yl)amino)isoindoline-1,3-dione] | ++ (++ = 100 ≤ AUC < 150)
13 | 0.009 µM | 0.01 µM | Cc1cc(-c2cc3c(cc2Nc2cccc4c2C(=O)N([C@@H]2CCC(=O)NC2=O)C4=O)N(C)C(=O)CO3)c(F)cn1 [Compound 58, (R)-2-(2,6-dioxopiperidin-3-yl)-4-((7-(5-fluoro-2-methylpyridin-4-yl)-4-methyl-3-oxo-3,4-dihydro-2H-benzo[b][1,4]oxazin-6-yl)amino)isoindoline-1,3-dione] | ++ (++ = 100 ≤ AUC < 150)
14 | 0.008 µM | 0.01 µM | Cc1cc(-c2cc3c(cc2Nc2cccc4c2C(=O)N([C@@H]2CCC(=O)NC2=O)C4=O)N(C)C(=O)CO3)ccn1 [Compound 59, (R)-2-(2,6-dioxopiperidin-3-yl)-4-((4-methyl-7-(2-methylpyridin-4-yl)-3-oxo-3,4-dihydro-2H-benzo[b][1,4]oxazin-6-yl)amino)isoindoline-1,3-dione] | +++ (+++ = AUC ≥ 150)
15 | 0.009 µM | 0.011 µM | CNc1cc(-c2cc3c(cc2Nc2cccc4c2C(=O)N(C2CCC(=O)NC2=O)C4=O)N(C)C(=O)CO3)c(F)cn1 (stereo not drawn) [Compound 60, 2-(2,6-dioxopiperidin-3-yl)-4-((7-(5-fluoro-2-(methylamino)pyridin-4-yl)-4-methyl-3-oxo-3,4-dihydro-2H-benzo[b][1,4]oxazin-6-yl)amino)isoindoline-1,3-dione] | +++ (+++ = AUC ≥ 150)
16 | 0.007 µM | 0.011 µM | Cc1cc(-c2cc3c(cc2Nc2cccc4c2C(=O)N([C@H]2CCC(=O)NC2=O)C4=O)N(C)C(=O)CO3)c(F)cn1 [Compound 61, (S)-2-(2,6-dioxopiperidin-3-yl)-4-((7-(5-fluoro-2-methylpyridin-4-yl)-4-methyl-3-oxo-3,4-dihydro-2H-benzo[b][1,4]oxazin-6-yl)amino)isoindoline-1,3-dione] | ++ (++ = 100 ≤ AUC < 150)
17 | 0.012 µM | 0.053 µM | CCOc1nccc(-c2cc3c(cc2Nc2cccc4c2C(=O)N(C2CCC(=O)NC2=O)C4=O)N(C)C(=O)CO3)c1C (stereo not drawn) [Compound 64, 2-(2,6-dioxopiperidin-3-yl)-4-((7-(2-ethoxy-3-methylpyridin-4-yl)-4-methyl-3-oxo-3,4-dihydro-2H-benzo[b][1,4]oxazin-6-yl)amino)isoindoline-1,3-dione] | ++ (++ = 100 ≤ AUC < 150)
18 | 0.015 µM | 0.188 µM | CNc1cc(-c2cc3c(cc2Nc2cccc4c2C(=O)N(C2CCC(=O)NC2=O)C4=O)N(C)C(=O)CO3)cc(C)n1 (stereo not drawn) [Compound 66, 2-(2,6-dioxopiperidin-3-yl)-4-((4-methyl-7-(2-methyl-6-(methylamino)pyridin-4-yl)-3-oxo-3,4-dihydro-2H-benzo[b][1,4]oxazin-6-yl)amino)isoindoline-1,3-dione] | ++ (++ = 100 ≤ AUC < 150)
19 | 0.003 µM | 0.006 µM | CN1C(=O)COc2cc([C@H]3CC[C@H](C#N)CC3)c(Nc3cccc4c3C(=O)N([C@H]3CCC(=O)NC3=O)C4=O)cc21 [Compound 68, (1S,4r)-4-(6-((2-((S)-2,6-dioxopiperidin-3-yl)-1,3-dioxoisoindolin-4-yl)amino)-4-methyl-3-oxo-3,4-dihydro-2H-benzo[b][1,4]oxazin-7-yl)cyclohexane-1-carbonitrile] | +++ (+++ = AUC ≥ 150)
